Measured values: ChEMBL document CHEMBL1201862, “PubChem BioAssay data set” (2004)
Activity calls are given as the source filed them.

Columns and labels:
[1] = inhibitors of intracellular T. cruzi replication, confirmation, NIH3T3 host cells, beta-gal luminescence (AID 2044); format: functional, cell-based;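 further: intracellular parasites grown in NIH/3T3 mouse fibroblasts as host cells; luminescent beta-galactosidase reporter signal from transgenic T. cruzi replicating inside host cells; inhibitors lower the luminescence signal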
[2] = cytotoxicity toward NIH3T3 fibroblasts, dose response, counter-screen, cell-based, ATP luminescence, mouse fibroblasts (AID 2010); format: functional;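 further: cells exposed to compound for about 90 hours before reading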
[3] = target: T1, Heat shock factor protein 1 (Mus musculus, UniProt P38532); assay: HSF1 potentiators in luciferase reporter cells, confirmation, cell-based, NIH3T3, luminescence, dose retest (AID 435004); format: functional;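 further: stress induced by proteasome inhibitor MG132 added 30 min after compound; luciferase reporter driven by HSF1 response element in NIH3T3 cells; actives raise luminescence as potentiators of the MG132 stress response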
T1 sequence (P38532 whole entry): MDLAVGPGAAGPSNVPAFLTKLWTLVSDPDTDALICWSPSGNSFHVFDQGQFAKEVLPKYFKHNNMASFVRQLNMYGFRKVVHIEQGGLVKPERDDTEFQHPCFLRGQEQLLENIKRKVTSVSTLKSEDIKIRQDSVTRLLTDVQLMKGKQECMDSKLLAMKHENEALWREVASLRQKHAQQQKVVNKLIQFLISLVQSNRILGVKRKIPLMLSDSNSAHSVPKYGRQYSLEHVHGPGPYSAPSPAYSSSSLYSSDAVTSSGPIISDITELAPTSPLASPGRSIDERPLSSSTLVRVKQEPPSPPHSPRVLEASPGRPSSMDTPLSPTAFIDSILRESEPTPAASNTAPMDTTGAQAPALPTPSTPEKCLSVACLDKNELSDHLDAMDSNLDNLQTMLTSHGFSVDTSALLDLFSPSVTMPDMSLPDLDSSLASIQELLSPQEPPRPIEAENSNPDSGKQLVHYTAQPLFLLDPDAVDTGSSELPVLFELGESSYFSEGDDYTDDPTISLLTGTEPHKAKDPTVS

[4] = target: T2, RNA-binding protein pos-1 (Caenorhabditis elegans, UniProt G5EF15); assay: inhibitors of POS-1/mex-3 RNA binding, dose response, biochemical, fluorescence polarization (AID 1964);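 further: purified POS-1 fused to maltose binding protein made in E. coli; potency of compounds blocking POS-1 binding to fluorescent RNA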
T2 sequence (G5EF15 whole entry): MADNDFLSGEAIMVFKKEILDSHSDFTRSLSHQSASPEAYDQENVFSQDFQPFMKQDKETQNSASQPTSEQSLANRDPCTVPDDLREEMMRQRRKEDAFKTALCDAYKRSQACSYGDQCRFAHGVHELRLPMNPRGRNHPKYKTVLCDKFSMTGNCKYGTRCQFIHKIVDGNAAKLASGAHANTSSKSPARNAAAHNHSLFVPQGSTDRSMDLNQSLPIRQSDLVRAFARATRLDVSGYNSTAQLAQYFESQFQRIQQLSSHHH

[5] = target: T3, Zinc finger protein mex-5 (Caenorhabditis elegans, UniProt Q9XUB2); assay: MEX-5/TCR-2 RNA interaction inhibitors, dose response, biochemical, C. elegans, fluorescence polarization (AID 1960)
T3 sequence (Q9XUB2 whole entry): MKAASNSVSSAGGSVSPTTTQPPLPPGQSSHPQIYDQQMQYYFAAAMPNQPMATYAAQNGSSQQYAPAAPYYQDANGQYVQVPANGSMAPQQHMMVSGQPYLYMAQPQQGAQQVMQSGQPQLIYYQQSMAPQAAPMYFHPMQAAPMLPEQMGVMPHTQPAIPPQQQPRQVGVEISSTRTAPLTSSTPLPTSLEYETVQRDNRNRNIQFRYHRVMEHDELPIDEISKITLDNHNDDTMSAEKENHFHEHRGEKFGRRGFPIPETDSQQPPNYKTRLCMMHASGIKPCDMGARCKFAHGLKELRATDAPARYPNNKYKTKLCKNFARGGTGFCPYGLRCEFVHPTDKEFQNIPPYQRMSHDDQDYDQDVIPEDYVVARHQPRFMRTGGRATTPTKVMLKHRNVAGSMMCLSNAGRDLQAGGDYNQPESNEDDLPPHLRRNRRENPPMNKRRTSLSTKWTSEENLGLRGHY

Cytochrome P450 2C19 = Cytochrome P450 2C19 (Homo sapiens, UniProt P33261); assay: Cytochrome panel assay with activity outcomes. Panel member name: p450-cyp2c19 Compounds with AC50 equal or less than 10 uM are considered active; format: functional
[6] = target: T4, Corticotropin-releasing factor receptor 2/Corticotropin-releasing factor-binding protein (Homo sapiens, UniProt P24387+Q13324); assay: activators of CRF receptor 2 with binding protein – uHTS hits, confirmation (AID 602473); format: functional; settings: read-out: EC50_Mean
T4 sequence (Q13324 whole entry): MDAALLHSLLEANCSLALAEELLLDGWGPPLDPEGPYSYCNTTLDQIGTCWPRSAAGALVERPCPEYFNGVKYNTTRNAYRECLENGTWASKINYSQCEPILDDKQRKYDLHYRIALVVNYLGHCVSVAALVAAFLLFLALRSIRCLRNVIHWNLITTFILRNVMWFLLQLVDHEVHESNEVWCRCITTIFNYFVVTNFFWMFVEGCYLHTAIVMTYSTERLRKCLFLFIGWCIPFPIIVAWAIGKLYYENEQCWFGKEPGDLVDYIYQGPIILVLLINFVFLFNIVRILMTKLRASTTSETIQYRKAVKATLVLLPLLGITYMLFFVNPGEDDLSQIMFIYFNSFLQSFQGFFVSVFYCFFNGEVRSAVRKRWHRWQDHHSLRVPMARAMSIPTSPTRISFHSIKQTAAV
T4 sequence (P24387 whole entry): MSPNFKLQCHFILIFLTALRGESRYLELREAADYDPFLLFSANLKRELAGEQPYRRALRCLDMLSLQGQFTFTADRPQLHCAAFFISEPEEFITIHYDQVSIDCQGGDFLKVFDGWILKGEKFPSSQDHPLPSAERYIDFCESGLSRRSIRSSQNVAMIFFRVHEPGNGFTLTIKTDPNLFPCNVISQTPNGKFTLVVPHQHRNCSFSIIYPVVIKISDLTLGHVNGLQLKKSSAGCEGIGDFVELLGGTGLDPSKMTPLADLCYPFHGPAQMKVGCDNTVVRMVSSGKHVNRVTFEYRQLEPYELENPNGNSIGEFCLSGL

[7] = system: Streptococcus sp. 'group A'; assay: growth inhibition of control SK(-) GAS strain, dose response, counter-screen for streptokinase expression inhibitor project, luminescence, kanamycin, BacTiterGlo, confirmation (AID 1900); format: functional, organism-based
Streptococcus = assay: Group A Streptococcus viability loss, dose response, counter-screen for streptokinase expression inhibitor project, luminescence, BacTiterGlo (AID 1915); format: functional, organism-based;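 further: potency for reduction of bacterial viability or growth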
Cytochrome P450 3A4 = Cytochrome P450 3A4 (Homo sapiens, UniProt P08684);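 further: CYP3A4 tested as one member of a cytochrome P450 panel screen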
Sequence of Cytochrome P450 3A4 (P08684 whole entry): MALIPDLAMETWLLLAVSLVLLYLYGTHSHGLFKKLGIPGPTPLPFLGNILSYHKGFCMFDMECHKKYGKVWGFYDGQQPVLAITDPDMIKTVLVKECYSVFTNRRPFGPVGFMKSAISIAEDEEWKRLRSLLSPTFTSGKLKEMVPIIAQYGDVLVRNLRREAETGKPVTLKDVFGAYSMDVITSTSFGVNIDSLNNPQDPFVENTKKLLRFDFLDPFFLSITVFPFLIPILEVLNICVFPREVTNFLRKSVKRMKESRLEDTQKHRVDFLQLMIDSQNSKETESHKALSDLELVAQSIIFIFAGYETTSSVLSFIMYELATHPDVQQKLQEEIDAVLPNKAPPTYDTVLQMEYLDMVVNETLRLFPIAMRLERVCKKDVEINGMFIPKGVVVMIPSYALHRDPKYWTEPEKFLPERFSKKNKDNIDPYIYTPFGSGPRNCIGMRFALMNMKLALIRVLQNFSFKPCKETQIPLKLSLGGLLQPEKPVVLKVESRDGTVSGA

Sequence of Cytochrome P450 2C19 (P33261 whole entry): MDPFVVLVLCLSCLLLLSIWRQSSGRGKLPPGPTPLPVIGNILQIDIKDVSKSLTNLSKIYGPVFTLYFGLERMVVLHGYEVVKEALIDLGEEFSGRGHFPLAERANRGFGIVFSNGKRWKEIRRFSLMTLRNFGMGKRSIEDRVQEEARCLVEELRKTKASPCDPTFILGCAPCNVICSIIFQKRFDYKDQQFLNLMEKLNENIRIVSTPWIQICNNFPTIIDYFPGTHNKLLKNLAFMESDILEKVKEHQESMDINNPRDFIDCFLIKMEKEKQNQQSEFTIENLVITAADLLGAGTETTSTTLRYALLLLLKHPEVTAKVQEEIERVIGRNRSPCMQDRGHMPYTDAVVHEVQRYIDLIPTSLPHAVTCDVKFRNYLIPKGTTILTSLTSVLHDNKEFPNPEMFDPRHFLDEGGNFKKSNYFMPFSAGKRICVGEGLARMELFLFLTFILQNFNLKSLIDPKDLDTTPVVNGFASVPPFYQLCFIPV

O=C(CN1CCN(c2cccc(Cl)c2)CC1)Nc1ccc([N+](=O)[O-])cc1C(=O)Nc1ccccc1F
EC50 [1]: 1.01 µM (active)
EC50 [2]: > 60 µM (not active)

CC(C)(C)NC(=O)c1ccc2c(c1)N(CC(=O)N1CCCCC1)C(=O)C(C)(C)O2
EC50 [3]: > 260 µM (inactive)

O=C(NC1C2CC3CC(C2)CC1C3)C1CC1 (stereo unspecified)
EC50 [3]: > 260 µM (inactive)

CC(C)COc1ccc(/C=C2/Sc3ccccc3C2=O)cc1
EC50 [4]: > 300 µM (not active)
EC50 [5]: > 300 µM (not active)

Cc1cc(C)cc(N2C(=O)NC(=O)/C(=C\c3cc(C)n(C)c3C)C2=O)c1
EC50 [4]: 6.75 µM (active)
EC50 [5]: 23.5 µM (active)

CC1(OC(=O)CCc2ccccc2)C(=O)C=C2C=C(C3CC3)OC=C2C1=O (stereo unspecified)
EC50 [4]: 36.6 µM (active)
EC50 [5]: 30.4 µM (active)

Cn1c(CN2CCCC2)nc2cc(NC(=O)C3CCCCC3)ccc21
AC50 (Cytochrome P450 2C19): inconclusive

O=C(NC1CCCC1)C(c1ccncc1)N(Cc1ccccc1)C(=O)c1ccc(-c2ccccc2)[nH]1 (stereo unspecified)
EC50 [1]: 0.253 µM (active)
EC50 [2]: > 60 µM (not active)

Oc1nc2cc3c(cc2cc1C(c1nnnn1C1CCCC1)N1CCCc2ccccc21)OCCO3 (stereo unspecified)
EC50 [6]: > 53 µM (inactive)

Clc1ccc(CCNc2nc3ccccc3n3nnnc23)cc1
EC50 [3]: > 260 µM (inactive)

Cc1nc(NCCc2c[nH]cn2)c2oc3ccccc3c2n1
EC50 [1]: 0.305 µM (active)
EC50 [2]: > 60 µM (not active)

CCCC(Oc1ccc(Br)cc1)c1nc2c3cc(OC)c(OC)cc3nc(S)n2n1 (stereo unspecified)
EC50 [7]: 0.253 µM (active)
EC50 (Streptococcus): 3.62 µM (active)

O=C(/C=C/c1ccc(Cl)cc1Cl)N(Cc1ccccc1)C1CCS(=O)(=O)C1 (stereo unspecified)
EC50 [3]: > 260 µM (inactive)

O=S(=O)([N-]c1nc2ccccc2nc1-[n+]1ccc(CCCc2ccccc2)cc1)c1cccs1
EC50 [4]: 35.4 µM (active)
EC50 [5]: 34 µM (active)

COC(=O)CCN(C(=O)c1cc([N+](=O)[O-])cc([N+](=O)[O-])c1)c1ccccn1
EC50 [1]: 1.38 µM (active)
EC50 [2]: > 30 µM (not active)

CC1=CC(C)(C)N(C(=O)CSc2nnc(N)s2)c2ccccc21
EC50 [6]: > 53 µM (inactive)

CCCCc1nnc(NC(=O)C(C)Sc2nc(C)cc(O)n2)s1 (stereo unspecified)
EC50 [3]: > 260 µM (inactive)

Cc1ccccc1NC(=O)C1CCCN(C(=O)NCc2ccccc2)C1 (stereo unspecified)
EC50 [3]: > 260 µM (inactive)

CCOC(=O)C1CCCN(C2CCN(Cc3nc(-c4ccccc4)no3)CC2)C1 (stereo unspecified)
EC50 [1]: 0.524 µM (active)
EC50 [2]: > 60 µM (not active)

CCSC1=N/C(=C\c2ccccc2)C(=O)N1
EC50 [4]: > 300 µM (not active)
EC50 [5]: > 300 µM (not active)

O=C1C2ON(c3ccccc3)C(c3ccncc3)C2C(=O)N1c1ccccc1 (stereo unspecified)
AC50 (Cytochrome P450 2C19; read-out: AC50): 0.0708 µM (inconclusive)

Cc1ccc(OCCOCCN2CCCC2)c(Br)c1
EC50 [1]: 0.96 µM (active)
EC50 [2]: > 30 µM (not active)

Cc1cnc(CNc2ncncc2-c2ccccc2C#N)cn1
AC50 (Cytochrome P450 3A4): 12.6 µM (inconclusive)

CN1CCN(NC(=O)/C=C/c2ccc(Br)cc2)CC1
EC50 [3]: 32.3 µM (active)
